Test results as given in the supplement of paper PMC4862054.
“And” between values parts separate entries of the source, which are not always exact repeats. Equal values may be shown once.

Legend:
Conditions in all cases: incubation time: 72 h
[1] = system: SK-BR-3; assay: normalised response (% of control), CellTiter-Glo; higher = more viable cells (100 = DMSO, 0 = benzethonium chloride kill control)
Procedure, shortened: (§1)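 Every value is a normalised signal taken at one concentration of a dilution series. Compound was placed in 384-well plates at 5 concentrations in 10-fold steps over a compound-specific 10,000-fold range, and 20 µl of breast cancer cell suspension was seeded onto it. After 72 h, CellTox Green fluorescence (485/520 nm) was measured first and CellTiter-Glo luminescence second, following 10 min at room temperature. Each plate was scaled to 0.1 % DMSO (100) and a positive kill control (0).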

[2] = system: MDA-MB-231; assay: as above
Procedure, shortened: as §1

[3] = system: MCF-10A; assay: as above
Procedure, shortened: as §1

[4] = system: MDA-MB-436; assay: as above
Procedure, shortened: as §1

[5] = system: HDQ-P1; assay: as above
Procedure, shortened: as §1

[6] = system: CAL-120; assay: as above
Procedure, shortened: as §1

[7] = system: CAL-51; assay: as above
Procedure, shortened: as §1

[8] = system: HCC1937; assay: as above
Procedure, shortened: as §1

[9] = system: HCC1599; assay: as above
Procedure, shortened: as §1

[10] = system: MFM-223; assay: as above
Procedure, shortened: as §1

[11] = system: HCC1143; assay: as above
Procedure, shortened: as §1

[12] = system: BT-474; assay: as above
Procedure, shortened: as §1

[13] = system: BT-549; assay: as above
Procedure, shortened: as §1

[14] = system: CAL-85-1; assay: as above
Procedure, shortened: as §1

[15] = system: MDA-MB-453; assay: as above
Procedure, shortened: as §1

[16] = system: DU-4475; assay: as above
Procedure, shortened: as §1

[17] = system: CAL-148; assay: as above
Procedure, shortened: as §1

[18] = system: Hs578T; assay: as above
Procedure, shortened: as §1

[19] = system: MDA-MB-468; assay: as above
Procedure, shortened: as §1

[20] = system: HDQ-P1; assay: normalised viability (% of control), CellTiter-Blue; higher = more viable cells (about 100 = DMSO control)
Experimental: (§2)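 DSRT, CellTiter-Blue viability, 72 h incubation. Signal is normalised to DMSO and benzethonium chloride controls. Value is the normalised response at dose 9.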

[21] = system: CAL-51; assay: as above
Experimental: as §2

[22] = system: CAL-85-1; assay: as above
Experimental: as §2

[23] = system: MDA-MB-453; assay: as above
Experimental: as §2

[24] = system: DU-4475; assay: as above
Experimental: as §2

[25] = system: CAL-148; assay: as above
Experimental: as §2

Row | SMILES | normalised response [1] [%] | normalised response [2] [%] | normalised response [3] [%] | normalised response [4] [%] | normalised response [5] [%] | normalised response [6] [%] | normalised response [7] [%] | normalised response [8] [%] | normalised response [9] [%] | normalised response [10] [%] | normalised response [11] [%] | normalised response [12] [%] | normalised response [13] [%] | normalised response [14] [%] | normalised response [15] [%] | normalised response [16] [%] | normalised response [17] [%] | normalised response [18] [%] | normalised response [19] [%] | normalised viability [20] [%] | normalised viability [21] | normalised viability [22] | normalised viability [23] | normalised viability [24] | normalised viability [25]
1 | CNC(=O)c1cc(Oc2ccc(NC(=O)Nc3ccc(Cl)c(C(F)(F)F)c3)cc2)ccn1 [Sorafenib] (100 nM) | 104 | 104 | 122 | 109 | 103 | 111 | 83.9 | 104 | 98.7 | 104 | 105 | 101 | 106 | 107 | 90.5 | 105 | 110 | 90.6 | 117 | – | – | – | – | – | –
2 | COc1ccc(-c2cc3c(C)nc(N)nc3n([C@H]3CC[C@H](OCCO)CC3)c2=O)cn1 (1000 nM) | 14.2 | 24.7 | 19.5 | 37.5 | 21.9 | 27 | 10 | 38.7 | 57.1 | 26.2 | 21.4 | 34.7 | 17.8 | 20.7 | 12.9 | 48 | 26.2 | 19.3 | 20.5 | – | – | – | – | – | –
3 | Nc1ccccc1NC(=O)c1ccc(CNc2nccc(-c3cccnc3)n2)cc1 [Mocetinostat] (1000 nM) | 78 | 77.7 | 140 | 78.2 | 80.8 | 83.8 | 62.9 | 67.8 | 81.2 | 77 | 91 | 80.4 | 66 | 87.9 | 62.8 | 76.3 | 77 | 74 | 72 | – | – | – | – | – | –
4 | Nc1ccccc1NC(=O)c1ccc(CNc2nccc(-c3cccnc3)n2)cc1 [Mocetinostat] (10000 nM) | – | – | – | – | – | – | – | – | – | – | – | – | – | – | – | – | – | – | – | 48.4 | 19.3% | 21% | 11.9% | 2.37% | 10%
5 | COc1nc(N)nc2c1ncn2[C@@H]1O[C@H](CO)[C@@H](O)[C@@H]1O [Nelarabine] (1000 nM) | 80.7 | 93.9 | 82.8 | 92.1 | 96.7 | 98.7 | 88.7 | 96.2 | 113 | 88.3 | 89.3 | 83.7 | 94.1 | 99.1 | 87.3 | 91.3 | 85.6 | 98.7 | 92.1 | – | – | – | – | – | –
6 | CNC(=O)c1cc(Oc2ccc(NC(=O)Nc3ccc(Cl)c(C(F)(F)F)c3)cc2)ccn1 [Sorafenib] (1000 nM) | – | – | – | – | – | – | – | – | – | – | – | – | – | – | – | – | – | – | – | – | 78.7% and 89.8% | 76.9% and 89.3% | 81% and 96.6% | – | 96.7% and 105%
7 | CCN(CC)CCNC(=O)c1c(C)[nH]c(/C=C2\C(=O)Nc3ccc(F)cc32)c1C [Sunitinib] (100 nM) | 112 | 109 | 95.5 | 105 | 101 | 103 | 88.4 | 99.4 | 107 | 107 | 108 | 107 | 107 | 104 | 92 | 99.7 | 104 | 102 | 108 | – | – | – | – | – | –
8 | C[C@]12C=CC(=O)C=C1CC[C@@H]1[C@@H]2[C@@H](O)C[C@@]2(C)[C@H]1CC[C@]2(O)C(=O)CO [Prednisolone] (1000 nM) | 90.3 | 154 | 101 | 99.7 | 85.8 | 75.2 | 120 | 97.6 | 109 | 106 | 102 | 158 | 102 | 113 | 98.1 | 101 | 102 | 113 | 121 | – | – | – | – | – | –
9 | Cc1nc(Nc2ncc(C(=O)Nc3c(C)cccc3Cl)s2)cc(N2CCN(CCO)CC2)n1 [Dasatinib] (100 nM) | 104 | 43.8 | 32.5 | 83.4 | 35.3 | 57.5 | 51.6 | 69.7 | 118 | 88.5 | 67.9 | 54.8 | 61.7 | 61.8 | 100 | 100 | 102 | 61.5 | 75.4 | – | – | – | – | – | –
10 | Cc1ccc(Nc2nccc(N(C)c3ccc4c(C)n(C)nc4c3)n2)cc1S(N)(=O)=O [Pazopanib] (1000 nM) | 102 | 106 | 92.5 | 103 | 100 | 87.3 | 104 | 94.5 | 106 | 66.6 | 106 | 93.9 | 98.4 | 101 | 113 | 104 | 98.6 | 95.6 | 103 | – | – | – | – | – | –
11 | C[C@]12O[C@H](C[C@]1(O)CO)n1c3ccccc3c3c4c(c5c6ccccc6n2c5c31)CNC4=O [Lestaurtinib] (100 nM) | 62.4 | 92.1 | 62.3 | 86 | 95.8 | 62.8 | 83.8 | 91 | 67.2 | 80.9 | 79.4 | 83.6 | 76.1 | 94.9 | 64.4 | 74.1 | 83.9 | 80.2 | 49.7 | – | – | – | – | – | –
12 | CCC/C=C/C=C/C(=O)O[C@H]1/C(=C/C(=O)OC)C[C@H]2C[C@H]([C@@H](C)O)OC(=O)C[C@H](O)C[C@@H]3C[C@H](OC(C)=O)C(C)(C)[C@](O)(C[C@@H]4C/C(=C/C(=O)OC)C[C@H](/C=C/C(C)(C)[C@]1(O)O2)O4)O3 [Bryostatin 1] (10 nM) | 69.7 | 89.2 | 103 | 99.6 | 91.6 | 101 | 69.1 | 97.8 | 111 | 108 | 104 | 87.2 | 94.2 | 97.1 | 96.8 | 93.7 | 109 | 76.9 | 100 | – | – | – | – | – | –
13 | CO[C@@H](C(=O)N1Cc2[nH]nc(NC(=O)c3ccc(N4CCN(C)CC4)cc3)c2C1)c1ccccc1 [Danusertib] (1000 nM) | 91.2 | 74.7 | 46.2 | 80.9 | 82.5 | 75.7 | 59.9 | 89.3 | 105 | 43.2 | 75.1 | 75.6 | 51.4 | 90.8 | 156 | 83.7 | 72.2 | 81.6 | 33.6 | – | – | – | – | – | –
14 | O=C(CCBr)N1CCN(C(=O)CCBr)CC1 [Pipobroman] (1000 nM) | 106 | 99.5 | 97 | 96.6 | 97.2 | 99.3 | 88.8 | 103 | 109 | 104 | 112 | 93.9 | 102 | 105 | 101 | 95.8 | 101 | 108 | 99.6 | – | – | – | – | – | –
15 | Cc1c(CN2CCN(C(=O)[C@H](C)O)CC2)sc2c(N3CCOCC3)nc(-c3cnc(N)nc3)nc12 [GDC-0980] (1000 nM) | 21.6 | 52 | 39.2 | 59.3 | 35.2 | 46.8 | 30.9 | 70.8 | 85.5 | 35.8 | 45.7 | 57 | 36.4 | 37.5 | 20.4 | 75.9 | 35.9 | 41.9 | 54.4 | – | – | – | – | – | –
16 | Nc1cccc2c1CN(C1CCC(=O)NC1=O)C2=O (centres undefined) [Lenalidomide] (1000 nM) | 101 | 105 | 103 | 99.9 | 101 | 93.8 | 99 | 100 | 116 | 97.6 | 101 | 97.7 | 97.6 | 108 | 87.1 | 102 | 98.2 | 104 | 111 | – | – | – | – | – | –
17 | O=C1c2c(O)ccc(O)c2C(=O)c2c(NCCNCCO)ccc(NCCNCCO)c21 [Mitoxantrone] (100 nM) | 99.2 | 103 | 96.2 | 69.8 | 96.4 | 34.6 | 93.8 | 97.3 | 120 | 99.7 | 96 | 94.3 | 90.1 | 101 | 107 | 86.2 | 85.6 | 104 | 92.4 | – | – | – | – | – | –
18 | COc1cc(CCc2cc(NC(=O)c3ccc(N4CC(C)NC(C)C4)cc3)n[nH]2)cc(OC)c1 (centres undefined) [AZD4547] (100 nM) | 89.3 | 106 | 86.2 | 99.2 | 104 | 80 | 91.4 | 93.4 | 107 | 53.1 | 93.1 | 102 | 88.4 | 96.2 | 90.4 | 96.9 | 104 | 88.1 | 92.2 | – | – | – | – | – | –
19 | CCN(CC)CCNC(=O)c1c(C)[nH]c(/C=C2\C(=O)Nc3ccc(F)cc32)c1C [Sunitinib] (1000 nM) | – | – | – | – | – | – | – | – | – | – | – | – | – | – | – | – | – | – | – | – | 112% and 98.6% | 105% and 107% | 89.9% and 93.9% | 88.2% and 77.7% | 107% and 117%
